# Results published in publication PMC8725944, “Design and synthesis of chromone-nitrogen mustard derivatives and evaluation of anti-breast cancer activity” (Journal of Enzyme Inhibition and Medicinal Chemistry, 2021).
# Columns and labels:
# [1] = test system: MDA-MB-231 cells; assay: Cell-cycle analysis (PI staining, flow cytometry); assay type: cell-based, human; conditions: for cells in G2/M phase / cells in S phase / cells in G1 phase: 72 h; for cells in G2/M phase: control 11.04%; for cells in S phase: control 36.51%; for cells in G1 phase: control 52.44%
# [2] = test system: MDA-MB-231 cells; assay: Wound healing assay (migration); assay type: cell-based, human; conditions: 22e 0.475, 0.95 and 1.9 μM, 24 h, versus untreated cells
# Protocol: MDA-MB-231 cells were cultured in 6-well plates at 37 °C for 24 h. After the cells attached, different concentrations of 22e (0, 0.475, 0.95 and 1.9 μM) were added. Sterile pipette tips were used to scratch evenly in 6-well plates, the floating cells were washed away with PBS, and the fresh culture medium was replaced. After incubation for 24 h, the cells were photographed and the migration distance was measured.
# [3] = test system: MDA-MB-231 cells; assay: Transwell assay (invasion); assay type: cell-based, human; conditions: 22e 0.475, 0.95 and 1.9 μM, 24 h
# Protocol: MDA-MB-231 cells were seeded in 24-well transwell plates upper chambers, different concentrations of 22e (0, 0.475, 0.95 and 1.9 μM) were incubated on the lower surface for 24 h. The cells in the upper surface of the membrane were removed, and the migrated or invaded cells of the membranes bottom surface were placed in 0.1% crystal violet for staining for 30 min. Finally, the cells that migrated or invaded of the chamber bottom were photographed and counted.
# [4] = test system: TNBC cell line MDA-MB-231; assay: CCK-8 assay, antiproliferative activity against MDA-MB-231; conditions: Homo sapiens, MDA-MB-231, 72 h, read-out: IC50 MDA-MB-231
# [5] = test system: MDA-MB-231 cells; assay: Adhesion assay; assay type: cell-based, human; conditions: 22e 0.475, 0.95 and 1.9 μM, 72 h
# Protocol: Different concentrations of 22e (0, 0.475, 0.95 and 1.9 μM) were used to treat MDA-MB-231 cells for 72 h. Then the serum-free medium containing CaM stain was added, cell suspension (100 μL) was cultured to 96-well plates (2000 cells/well) for 1 h. Finally, plates were washed with PBS, fixed with 3.7% formaldehyde, washed with PBS again, and took pictures with fluorescence microscope.
# [6] = test system: MDA-MB-231 cells; assay: Comet assay (DNA damage); assay type: cell-based, human; conditions: 72 h, control 0.48%
# Protocol: DNA damage was detected by Comet Assay Kit (Keygen, Nanjing, China) according to the manufacturer’s instructions. Briefly, MDA-MB-231 cells were treated with 22e (0, 0.475, 0.95 and 1.9 μM) for 72 h. The collected cells were fixed on CometSlide for 15 min at 4 °C. Subsequently, the cells were incubated in lysis solution at 4 °C for 90 min, the slides were electrophoresed for 20 min, fixed in ethanol for 5 min, and stained with Vista Green DNA Dye. Finally, the data were got by fluorescence microscope.
# [7] = test system: MDA-MB-231 cells; assay: Detection of intracellular ROS (DCFH-DA, flow cytometry); assay type: cell-based, human; conditions: 72 h, control 4.56%
# Protocol: MDA-MB-231 cells were seeded overnight in 6-well plates, treated with different concentrations of 22e (0, 0.475, 0.95 and 1.9 μM) for another 72 h. After digestion and washing, the cell suspension was prepared and cultured with fluorescent probe 2′,7′-dichlorodihydrofluorescein diacetate (DCFH-DA, Sigma-Aldrich, Darmstadt, Germany) at 37 °C for 20 min. Then, after the cells were washed, the intracellular reactive oxygen species (ROS) was measured by flow cytometry at 488 nm (excitation wavelength) and 530 nm (emission wavelength).
# [8] = test system: MDA-MB-231 cells; assay: Cell apoptosis assay (annexin V-FITC/PI, flow cytometry); assay type: cell-based, human; conditions: 72 h, control 5.85%
# Protocol: MDA-MB-231 cells were cultured in 6-well plates at 37 °C for 24 h, and then different concentrations of 22e (0, 0.475, 0.95 and 1.9 μM) were added. After 72 h of incubation, the cells were collected and suspended in binding buffer (500 μL). Finally, annexin V-fluorescein isothiocyanate (Annexin V-FITC, 5 μL) and propidium iodide (PI, 5 μL) were added, and the reaction was kept at room temperature in the dark for 10 min, then cell apoptosis was measured by flow cytometry.
structure (smiles),measurement,setting,value
"COC(=O)[C@H](Cc1ccc(N(CCCl)CCCl)cc1)NC(=O)CCCC(=O)NCc1coc2ccc(OC)cc2c1=O [Compound 22e, Methyl (S)-3-(4-(bis(2-chloroethyl)amino)phenyl)-2–(5-(((6-methoxy-4-oxo-4H-chromen-3-yl)methyl)amino)-5-oxopentanamido)propanoate]",cells in G2/M phase,[1]; 22e 0.475 μM,12.98%
same,cells in S phase,[1]; 22e 0.475 μM,36.58%
same,cells in G1 phase,[1]; 22e 0.475 μM,50.44%
same,cells in G2/M phase,[1]; 22e 0.95 μM,14.53%
same,cells in S phase,[1]; 22e 0.95 μM,34.59%
same,cells in G1 phase,[1]; 22e 0.95 μM,50.88%
same,cells in G2/M phase,[1]; 22e 1.9 μM,21.28%
same,cells in S phase,[1]; 22e 1.9 μM,36.21%
same,cells in G1 phase,[1]; 22e 1.9 μM,42.51%
same,cells in the S phase (in words),"[1]; 22e 0.475, 0.95 and 1.9 μM versus control",remained essentially unchanged
same,"wound closure distance (migration), in words",[2],significantly shortened
same,"MDA-MB-231 cells invasion, in words",[3],significantly inhibited
same,IC50,[4],1.9 ± 0.18 µM
same,"adhesion of MDA-MB-231 cells, in words",[5],inhibit the adhesion of MDA-MB-231 cells in a concentration-dependent manner
same,tail DNA percentage,[6]; 22e 0.475 μM,19.95%
same,tail DNA percentage,[6]; 22e 0.95 μM,38.15%
same,tail DNA percentage,[6]; 22e 1.9 μM,48.73%
same,DCFH-DA positive cells ratio,[7]; 22e 0.475 μM,8.05%
same,DCFH-DA positive cells ratio,[7]; 22e 0.95 μM,18.47%
same,DCFH-DA positive cells ratio,[7]; 22e 1.9 μM,45.98%
same,total apoptosis ratio,[8]; 22e 0.475 μM,11.00%
same,total apoptosis ratio,[8]; 22e 0.95 μM,16.27%
same,total apoptosis ratio,[8]; 22e 1.9 μM,42.12%
"COc1ccc2occ(COC(=O)[C@H](Cc3ccc(N(CCCl)CCCl)cc3)NC(=O)OC(C)(C)C)c(=O)c2c1 [Compound 18c, (6-Methoxy-4-oxo-4H-chromen-3-yl)methyl (S)-3-(4-(bis(2-chloroethyl)amino)phenyl)-2-((tert-butoxycarbonyl)amino)propanoate]",IC50,[4],16.7 ± 0.69 µM
